Paper PMC6130205 (Journal of medicinal chemistry, 2018)

Assays:
Type in all cases: biochemical
[1] = target: T1, SIRT1 (Homo sapiens, UniProt Q96EB6); experiment: fluorometric substrate cleavage
T1 sequence (Q96EB6 2-747): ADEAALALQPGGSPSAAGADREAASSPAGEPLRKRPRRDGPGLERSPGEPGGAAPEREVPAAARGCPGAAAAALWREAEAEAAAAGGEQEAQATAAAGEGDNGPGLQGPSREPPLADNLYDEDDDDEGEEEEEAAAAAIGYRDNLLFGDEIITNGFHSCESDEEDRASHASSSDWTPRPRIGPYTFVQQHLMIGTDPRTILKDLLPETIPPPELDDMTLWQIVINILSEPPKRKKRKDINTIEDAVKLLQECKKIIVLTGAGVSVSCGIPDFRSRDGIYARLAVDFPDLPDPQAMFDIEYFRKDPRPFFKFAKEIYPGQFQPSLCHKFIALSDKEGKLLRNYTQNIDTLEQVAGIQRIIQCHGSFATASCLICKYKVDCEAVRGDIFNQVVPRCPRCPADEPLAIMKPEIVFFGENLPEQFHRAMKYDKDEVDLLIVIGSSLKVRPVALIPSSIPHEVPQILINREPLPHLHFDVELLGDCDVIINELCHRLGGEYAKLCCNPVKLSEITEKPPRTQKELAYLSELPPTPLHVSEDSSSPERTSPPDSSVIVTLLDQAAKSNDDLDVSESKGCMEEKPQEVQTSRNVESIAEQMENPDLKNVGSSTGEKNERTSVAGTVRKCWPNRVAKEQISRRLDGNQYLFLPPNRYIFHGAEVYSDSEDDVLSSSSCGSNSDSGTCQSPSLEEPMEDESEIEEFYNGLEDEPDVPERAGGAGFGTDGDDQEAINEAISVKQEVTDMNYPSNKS

[2] = target: T1, SIRT1; experiment: fluorometric substrate cleavage kinetics
[3] = target: T1, SIRT1; experiment: in vitro SIRT1 reaction monitored by […] NMR

SMILES | fluorometric substrate cleavage (Kcat) [1] | fluorometric substrate cleavage kinetics (Kcat/Km) [2] | also measured
Cc1cc(=O)oc2cc(NC(=O)[C@H](CCCCNC(=O)c3ccccc3)NC(=O)OCc3ccccc3)ccc12 [compound 1, Benzyl (6-Benzamido-1-((4-methyl-2-oxo-2H-chromen-7-yl)-amino)-1-oxohexan-2-yl)carbamate] | (0.41 ± 0.014) × 10^−3 s^−1 |  | 
Cc1cc(=O)oc2cc(NC(=O)[C@H](CCCCNC(=O)c3cccc(F)c3)NC(=O)OCc3ccccc3)ccc12 [compound 3, Benzyl (6-(3-Fluorobenzamido)-1-((4-methyl-2-oxo-2H-chromen-7-yl)amino)-1-oxohexan-2-yl)carbamate] |  | 63.39 ± 4.32 M⁻¹ s⁻¹ | 
O=C(CCCCCNC(=O)c1ccccc1F)Nc1ccccc1 [compound 12, 2-FBzAHA] |  |  | in vitro SIRT1 reaction monitored by 19F NMR [3]: The enzymatic cleavage of 2F-BzAHA by SIRT1 was validated using an in vitro SIRT1 enzyme assay
Cc1cc(=O)oc2cc(NC(=O)[C@H](CCCCNC(=O)c3ccc(F)cc3)NC(=O)OCc3ccccc3)ccc12 [compound 4, Benzyl (6-(4-Fluorobenzamido)-1-((4-methyl-2-oxo-2H-chromen-7-yl)amino)-1-oxohexan-2-yl)carbamate] |  | 16.08 ± 1.32 M⁻¹ s⁻¹ | 
Cc1cc(=O)oc2cc(NC(=O)[C@H](CCCCNC(=O)Cc3ccccc3)NC(=O)OCc3ccccc3)ccc12 [compound 7] | (0.37 ± 0.02) × 10^−3 s^−1 |  | 
CCc1ccc(C(=O)NCCCC[C@H](NC(=O)OCc2ccccc2)C(=O)Nc2ccc3c(C)cc(=O)oc3c2)cc1 [compound 5, Benzyl (6-(4-Ethylbenzamido)-1-((4-methyl-2-oxo-2H-chromen-7-yl)amino)-1-oxohexan-2-yl)carbamate] | the 4-ethyl substitution increased the Kcat for SIRT1 but only minimally |  | 
Cc1cc(=O)oc2cc(NC(=O)[C@H](CCCCNC(=O)c3ccccc3F)NC(=O)OCc3ccccc3)ccc12 [compound 2, Benzyl (6-(2-Fluorobenzamido)-1-((4-methyl-2-oxo-2H-chromen-7-yl)amino)-1-oxohexan-2-yl)carbamate] |  | 26.02 ± 7.07 M⁻¹ s⁻¹ | 
